These results are taken from patent US9155722B2, “Reconstitutable reverse thermal gelling polymers” (PROTHERICS SALT LAKE CITY, INC., priority 2009, dated 2015).

A value given as a limit tells only on which side of the number the result lay.

The nature of one data set: physchem. As for the experimental part:
For solubilization studies, the calculated amount of Paclitaxel was add to the block polymers aqueous solution (prepared according to Example 5) and stirred for 10-20 minute at room temperature or 4° C.

A short description of data set [1]: Stability of paclitaxel in copolymer solution or gel. It is filed as physicochemical.
The conditions of data set [2]: cited from earlier work.

Take `CC(=O)O[C@H]1C(=O)[C@@]2(C)[C@H]([C@H](OC(=O)c3ccccc3)[C@]3(O)C[C@H](OC(=O)[C@H](O)[C@@H](NC(=O)c4ccccc4)c4ccccc4)C(C)=C1C3(C)C)[C@]1(OC(C)=O)CO[C@@H]1C[C@@H]2O` [paclitaxel]: the “increase in solubility of paclitaxel” value in the data set “physchem” is recorded as around 3000 fold. In “physchem” (aqueous with cosolvent or surfactant or cyclodextrin, thermodynamic from solid), this molecule yielded a solubility of at most 12 mg/mL. Moreover, the paclitaxel intact in data set [1] (23% by weight aqueous triblock copolymer solutions or gels, after 30 days in storage (2 to 8° C. and 37° C.)) is on record as above 90%. Further, the paclitaxel degraded in data set [1] (aqueous cosolvent solution, in less than one week at 37° C.) is above 50%. In addition, the solubility in water result in data set [2] was “approximately 4 μg/ml”.

By solubility is commonly meant the dissolved amount per volume that the medium holds. Read a low solubility as little dissolved substance.
